{"source": "patent US9717769B2", "about": "“Method for protecting kidney function” (FUGENBIOPHARMA CO., LTD., priority 2015, dated 2017)", "test_system": "MDCK cell line", "assay": "MTT analysis of kidney-protection effect against cisplatin-induced renal toxicity", "format": "cell-based, canine", "conditions": "treated with cisplatin only (5 μM), MTT 24 hours after cisplatin; relative to negative control (neither cisplatin nor EPS) set at 100%", "protocol": "MTT analysis was conducted to confirm the kidney-protection effect of the EPS prepared in Preparation Example 4 against renal toxicity caused by an anti-cancer agent.\nFirst, MDCK cell line (Korean Cell Line Bank, Korea) was cultured in DMEM medium supplemented with 10% fetal bovine serum, 100 μg/mL streptomycin and 100 U/mL penicillin at 37° C. and 5% CO2. 100 μL each of the cultured cells was dispensed to 96-well plate at 2×10^4 cells/mL, and cultured for 24 hours. The EPS was added thereto to a concentration of 25, 50 or 250 μg/mL, and 2 hours thereafter, 5 μM of cisplatin was added thereto.\n24 hours after cisplatin was added, 10 μL of MTT (1 mg/mL) dissolved in PBS was added to each well, subjected to reaction for 4 hours. After 4 hours, the formation of formazan was confirmed, and the supernatant was completely removed so that formazan may not be dispersed. Then, the resultant was added to dissolve, in 100 μL of DMSO and dissolved, followed by the measurement of the absorbance at 570 nm using ELISA reader.\nThe results are shown in FIG. 1 as relative values when the value of the negative control group treated with neither cisplatin nor EPS was set at 100%.", "data": [{"smiles": "N.N.[Cl][Pt][Cl]", "note": "[cisplatin, cis-diammine-dichloroplatinum [II]]", "values": [{"measurement": "survival rate of MDCK cell line", "result": "about 60%"}]}]}
